Key:
Type in all cases: cell-based
hBmal1 gene [1] = experiment: Clock gene expression regulation, hBmal1 expressed amount by RT-PCR in cultured human skin fibroblast cells; details: for Relative expressed amount of hBmal1 (16 hours): 50 ppm test substance, 16 hours after addition, relative to RPLP0, control 0.48, *p < 0.05; for expressed amount of hBmal1 gene in comparison with the control: 50 ppm, 16 hours, Dunnett's test one-sided 5%
Experimental: (§1) The results above confirm that in an evaluation system using cultured human skin fibroblast cells, clock genes acquire a circadian rhythm when stimulated with cortisol. Because it is desirable to evaluate during a time period when the expressed amount is high, the clock gene expression regulation effects of the test substances were evaluated based on the expressed amount of the clock gene 16 hours after stimulation in the case of hBmal1 and 2 hours after stimulation in the case of hPer1.
(§2) Fibroblasts cells from normal human skin (Cell Application, Inc.) were seeded by methods similar to those used above, each chemical was added on the 6th day of culture to a concentration of 50 ppm, and the cells were sampled after 2 hours and after 16 hours. The same amount of ethanol was added instead of the test substance as a control. RNA was extracted from the cells with a commercial RNA extraction kit, and the expressed amounts of the hBmal1 and hPer1 genes were measured by RT-PCR using a commercial PCR primer (Perfect Real Time Primer, Takara Bio). Similarly, the expressed amount of the housekeeping gene RPLP0 was assayed and used as an internal standard to calculate the expressed amounts of the target genes relative to the expressed amount of RPLP0. Dunnett's multiple comparison test was performed on the obtained values, and an effect was recognized if there was a significant difference with a one-sided 5% risk factor in comparison with the control.

hPer1 gene [2] = experiment: Clock gene expression regulation, hPer1 expressed amount by RT-PCR in cultured human skin fibroblast cells; details: for Relative expressed amount of hPer1 (2 hours): 50 ppm test substance, 2 hours after addition, relative to RPLP0, control 0.24, *p < 0.05; for expressed amount of hPer1 gene in comparison with the control: 50 ppm, 2 hours, Dunnett's test one-sided 5%
Experimental: as §1, §2

hBmal1 gene [3] = experiment: Induction of circadian rhythm of hBmal1 expression with cortisol in cultured human skin fibroblast cells; details: 50 ng/ml cortisol, 2 hours of treatment, cells sampled over time (FIG. 2)
Experimental: (§3) It was confirmed that a circadian rhythm of clock gene expression can be induced in a system using cultured human skin fibroblast cells.
(§4) As the cultured human fibroblast cells, fibroblast cells from normal human skin were purchased (Cell Application, Inc.) and used in the experiments. They were seeded on DMEM medium with 10% FBS, 20 mM HEPES, Glutamax and an antibacterial agent added thereto, and cultured at 37° C. in 5% CO2. On the 6th day of culture, 50 ng/ml of cortisol was added, and after 2 hours of treatment the cells were sampled over time. RNA was extracted from the cells with a commercial RNA extraction kit, and the expressed amounts of the hBmal1 and hPer1 genes were measured by RT-PCR using a commercial PCR primer (Perfect Real Time Primer, Takara Bio). Similarly, the expressed amount of the housekeeping gene RPLP0 was assayed and used as an internal standard to calculate the expressed amounts of the target genes relative to the expressed amount of RPLP0.
(§5) In the body, cortisol and other glucocorticoids are involved in regulating the biological clock in peripheral tissue and the like, and it is thought that blood concentrations of cortisol rise at the time of awakening in the morning, resetting the biological clock. […]

hPer1 gene [4] = experiment: Induction of circadian rhythm of hPer1 expression with cortisol in cultured human skin fibroblast cells; details: 50 ng/ml cortisol, 2 hours of treatment, cells sampled over time (FIG. 2)
Experimental: as §3, §4, §5

| Structure (SMILES) | Relative expressed amount of hBmal1 (16 hours) (hBmal1 gene [1]) | expressed amount of hBmal1 gene in comparison with the control (hBmal1 gene [1]) | Relative expressed amount of hPer1 (2 hours) (hPer1 gene [2]) | expressed amount of hPer1 gene in comparison with the control (hPer1 gene [2]) | cycle of circadian rhythm of hBmal1 expression as a result of cortisol stimulation (hBmal1 gene [3]) | cycle of circadian rhythm of hPer1 expression as a result of cortisol stimulation (hPer1 gene [4]) |
| --- | --- | --- | --- | --- | --- | --- |
| C=C1CC[C@H]2O[C@]2(C)CC[C@@H]2[C@@H]1CC2(C)C [Caryophyllene oxide, (1R,4R,6R,10S)-4,12,12-trimethyl-9-methylene-5-oxatricyclo[8.2.0.04.6]dodecane] | 3.50* | significantly increased | 2.29* | significantly increased | – | – |
| COC(=O)c1ccccc1N [Methyl 2-aminobenzoate] | 1.19* | significantly increased | 0.64* | significantly increased | – | – |
| CNc1ccccc1C(=O)OC [Methyl 2-methylaminobenzoate] | 2.52* | significantly increased | 0.64* | significantly increased | – | – |
| COC(=O)c1ccccc1C [Methyl 2-methylbenzoate, methyl 2-methylbenzoate] | 1.01* | significantly increased | 0.44* | significantly increased | – | – |
| C[C@]12CCC(=O)C=C1CC[C@@H]1[C@@H]2[C@@H](O)C[C@@]2(C)[C@H]1CC[C@]2(O)C(=O)CO [cortisol] | – | – | – | – | roughly 24 hour | roughly 24 hour |

Reference: patent US20140057979A1, “Expression Modulator For Clock Gene” (Shiseido Company, Ltd., priority 2012, published 2014)
